Series [1] has as its system T. cruzi bloodstream trypomastigotes (Y strain). The experiment in a line: Mouse model of acute T. cruzi infection: parasitaemia and mortality. It is filed as in vivo, Swiss male mice. To be noted: for mortality (cumulative death) / parasitaemia peak decline at the 8 dpi: assay 1: BZ 25 mg/kg/day p.o., BTZ 45.61 mg/kg/day i.p.; for mortality (cumulative death) / parasitaemia reduction: five days; for parasitaemia peak decline at the 8 dpi: five days from 5 dpi; for animal mortality: assay 2, lower doses: BZ 10 mg/kg/day p.o. On the procedure:
In vivo analysis in a mouse model of acute T. cruzi infection - Swiss male mice (18 - 20 g) were obtained from the Institute of Sciences and Technologies in Biomodels (ICTB-FIOCRUZ), housed with a maximum of 5 animals per cage and kept in a specific pathogen-free (SPF) room at 20 - 24 °C under a 12 h light/dark cycle. All animals received sterilised water and food ad libitum. The animals were acclimatised for seven days before the experiments. For a proof-of-concept study, animals were infected by i.p (1x10^4) with bloodstream trypomastigotes (Y strain). The drugs administration started at the onset of parasitaemia (5th day dpi), only using mice with detectable parasitaemia.[19] ^, [28] Control mice groups were age-matched and housed under identical conditions. The following experimental groups were used ≥ 3 mice per group: untreated (infected vehicle-treated control) and treated orally (p.o) with BZ (10, 25 and 100 mg/kg/day), corresponding to suboptimal and optimal doses of the reference drug; infected and treated with BTZ (i.p) using concentrations adjusted to be equimolar to BZ doses (18.24, 45.61 and 182.44 mg/kg/day). Also, the following combo was administered: BZ (10 mg/kg/day/p.o) + BTZ (18.24 mg/kg/day/i.p). The animals received the drugs once a day for five consecutive days. A […] optimal dose of BZ (10 mg/kg/day) was chosen to clearly observe any benefit of its association with BTZ. The i.p. route for BTZ was chosen due to its low aqueous solubility.
Parasitaemia and mortality rate - Parasitaemia was performed by collecting 5 μL of the blood from the tail’s vein, disposing it on a slide and covering with coverslips (18 x 18 mm) for direct counting of parasites observed in 50 fields under light microscope (40X magnification).[19] ^, [28] The mortality was followed daily up to 30 days after the end of treatment and expressed as a percentage of cumulative mortality (% CM).[19] ^, [27] In vivo assays were conducted with n = 5 per group.

In series [2] the test system is T. cruzi (Y strain) blood trypomastigotes. Description: In vitro activity on bloodstream trypomastigotes. It is filed as cell-based, Trypanosoma cruzi. Conditions: for EC90 / EC50: Trypanosoma cruzi. On the procedure: In vitro activity on bloodstream trypomastigotes - Swiss male mice were inoculated with 5 x 10^4 bloodstream trypomastigotes (BT, Y strain, DTU II) and at the parasitaemia peak [8th post-infection (dpi)], euthanised using 3% isoflurane and blood samples obtained by cardiac puncture (CEUA FIOCRUZ L038-2017). Then, 100 μL of parasite suspension (10^7/mL in RPMI medium + 5% FBS) was added to the same volume of RPMI + 5% FBS containing treatment with BTZ (serially diluted - 1:2) at twice the desired final concentration. After 2 and 24 h at 37 °C, the number of live parasites was determined by light microscopy quantification using a Neubauer chamber.[6] Untreated controls were carried out with parasites kept under the same conditions and BZ was run in parallel. The activity of the compounds was expressed by the EC50 and EC90 values. The assays were done at least twice, in duplicate.

A short description of the next series: in vitro. Type of series: cell-based. Conditions: rat, Toxicity on H9C2 mammalian cells LC50. On the procedure: (§1) Mammalian cell cultures - L929 fibroblast lineage were cultured in Roswell Park Memorial Institute 1640 medium without phenol red (RPMI - Sigma-Aldrich, St. Louis, MO, USA), supplemented with 10% foetal bovine serum (FBS - Cultilab - SP - Brazil) and 2 mM glutamine (Sigma-Aldrich, St. Louis, MO, USA) with pH 7.2 - 7.4, as previously reported.[21] H9C2, cardiomyoblast cultures, were maintained in Dulbecco’s Modified Eagle’s Medium (DMEM) high glucose (4500 mg/L) medium supplemented (Sigma-Aldrich, St. Louis, MO, USA) with 10% FBS (Cultilab - SP -Brazil), 2 mM glutamine (Sigma-Aldrich, St. Louis, MO, USA) and 100 μg/mL penicillin/streptomycin (Sigma-Aldrich, St. Louis, MO, USA).[22] Both cell cultures maintained at 37 °C under an atmosphere of 5% CO2, with weekly dissociation protocol using 0.01% trypsin.
(§2) Cytotoxicity assay - The toxicity of the compounds was evaluated on two mammalian cell lines (L929 and H9C2), as reported.[21] The cells were seeded in 96-well plates (4 x 10^3 cells/well - for L929; 25x10^3 cells/well - for H9C2) and incubated at 37 °C and 5% CO2. The L929 cultures were kept under treatment for 96 and 168 h with a serial dilution (1:2) of the compounds (up to 400 μM). After the treatment periods, the AlamarBlue® reagent (Thermo Fisher Scientific Inc) was added and incubated for 24 h. The H9C2 cultures were also treated in serial dilution up to 200 μM for 24 h. PrestoBlue® reagent (Thermo Fisher Scientific Inc) was added to the cultures and incubated for 3 h. All plates were analysed in the spectrophotometer SpectraMaxM3 (570 and 600 nm) and LC50 values (concentration capable of inducing loss of viability in 50% of the cells) determined.[21] All assays were done at least twice, in triplicates.

A further series deals with H9C2 mammalian cells. Description: cells. It is filed as cell-based. To be noted: for EC50: Rattus norvegicus, H9c2, 24 h, read-out: Toxicity on H9C2 mammalian cells pEC50 (converted). On the procedure:
as §1, §2

Where [3] appears, read: assay 2, higher doses: BZ 100 mg/kg/day p.o., BTZ 182.44 mg/kg/day i.p.
[4] abbreviates: assay 2, lowest doses: BZ 10 mg/kg/day p.o., BTZ 18.24 mg/kg/day i.p.
The mark [5] stands for this setting: 2 h, read-out: Activity on T. cruzi (Y strain) blood trypomastigotes EC50.
The mark [6] stands for this setting: 24 h, read-out: Activity on T. cruzi (Y strain) blood trypomastigotes EC50.
The mark [7] stands for this setting: 24 h, read-out: Activity on T. cruzi (Y strain) blood trypomastigotes pEC50 (converted).

Entries after “also recorded” stand apart in the source; their conditions may differ. Like-named read-outs stand apart in the source and are kept apart here.

Regarding `Clc1ccc(CCC(Cn2ccnc2)Sc2c(Cl)cccc2Cl)cc1` (stereo not shown) [BTZ, butoconazole], in series [1], the “mortality (cumulative death)” value was 40%. In series [1], the “parasitaemia peak decline at the 8 dpi” value came out at 50%. For the same compound, the animal survival in series [1] (setting [3]) turned out to be 100%. Moreover, the parasitaemia reduction in series [1] (setting [3]) is recorded as 63%; in series [1] (setting [4]) it was “only slightly”. The compound also came in with an animal mortality in series [1] (BTZ 18.24 mg/kg/day i.p.) of 75%. Further, in series [2] (24 h, EC50 versus BZ), the “fold less potent than BZ on bloodstream trypomastigotes” value worked out at 2.3 fold. Also, the values for the EC90 in series [2] (2 h) and in series [2] (24 h) were greater than 20 µM and 18.64 ± 0.11 µM, respectively. In addition, the EC50 in series [2] (setting [5]) is greater than 20 µM; in series [2] (setting [6]), 13.8 ± 0.7 µM; in series [2] (setting [7]) it was 14.1 µM; with H9C2 mammalian cells, 37.2 µM. The same compound yielded a 50% cytotoxic concentration (CC50) at 24 h in the series “in vitro” of 36 ± 0.25 µM. In the series with H9C2 mammalian cells (rat, 24 h), this compound registered a half-maximal cytotoxic concentration (CC50) of 36.36 ± 0.25 µM.

As for `O=C(Cn1ccnc1[N+](=O)[O-])NCc1ccccc1` [BZ, benznidazole], in series [1], the “mortality (cumulative death)” value worked out at 0%. Further, in series [1], the “parasitaemia peak decline at the 8 dpi” value is 93%. The compound also returned an animal survival in series [1] (setting [3]) of 100%. In addition, the parasitaemia reduction entry is listed as “suppressed the peak; also recorded: fully suppressed parasitaemia” in series [1] (setting [3]) and “only slightly” in series [1] (setting [4]). Further, the animal mortality in series [1] (BTZ 18.24 mg/kg/day i.p.) is given as 100%. Besides, the EC90 in series [2] (2 h) was greater than 20 µM; in series [2] (24 h), 17.5 ± 0.65 µM. For the same compound, the EC50 in series [2] (setting [5]) was greater than 20 µM; in series [2] (setting [6]) it was 5.93 ± 0.15 µM; in series [2] (setting [7]) it was 6.03 µM; in the series with H9C2 mammalian cells, greater than 200 µM. The compound further returned a 50% cytotoxic concentration (CC50) at 24 h in the series “in vitro” greater than 200 µM.

Broadly, the EC90 is the point of the concentration-response curve where the effect stands at 90%. One may read the CC50 as the concentration that lowers cell viability or growth by half. A low value points to harm at low concentration.
